A short description of one data set: pKa of the dyes A-OH. It counts as physicochemical. An excerpt:
The compounds of the formula A--O--B can be used as substrates for the detection and the determination of hydrolases. The dye A--OH, which is liberated on cleavage, has appreciable advantages over those of the state of the art. […] This means that even in the pH range below 7 there is compared with p-nitrophenol, a considerably higher extinction at the same molarity, so that the new substrates prepared from these dyes can therefore be measured with considerably greater sensitivity.

A short description of data set [1]: Extinction coefficients and absorption maxima of dyes at different pH values. Type of data set: physicochemical.
Another data set deals with α-amylase. Put plainly: Determination of α-amylase activity in a urine sample without auxiliary enzyme α-glucosidase. Type of data set: biochemical. To be noted: for absorbance change, fold greater than with the nitrophenyl derivative / delta A/min: urine sample; for delta A/min: without auxiliary enzyme α-glucosidase. As for the experimental part: For determination of α-amylase, the measured extinction changes were compared for the following new substrates: 2H-7-O-(α-D-maltotriosyl)-4-methyl-8-nitrobenzopyran-2-one (compound S10), the corresponding maltotetraosyl compound (compound S11) as well as o-nitrophenyl α-maltotrioside.
585 mg of NaCl and 200 mg of compound S10 were dissolved in 100 ml of M/15 phosphate buffer, pH 6.0. 20 μl of urine were pipetted into 1 ml of this solution which was thoroughly mixed. The change in absorbance at 365 nm was continuously recorded in a photometer with a pen recorder attached. The change in absorbance per miute (delta A/min) was calculated from the recording on the pen recorder, and the enzyme activity (U/L) was calculated using the following formula: [formula] 1.02=assay volume including the sample, in ml 0.02=sample volume in ml

Broadly, the pKa is the pH at which an ionisable group is half protonated. A lower pKa goes with a stronger acid or weaker base. In “pKa of the dyes A-OH”, `O=[N+]([O-])c1nc(Cl)ccc1O` [3-Hydroxy-2-nitro-6-chloropyridine] returned a pKa of 3.9. Besides, the Extinction coefficient in data set [1] (pH 4.0, 365 nm) was 7.84 1·mol^-1·cm^-1·10^3; in data set [1] (pH 5.0, 365 nm), 11.87 1·mol^-1·cm^-1·10^3; in data set [1] (pH 6.0, 365 nm) it was 12.9 1·mol^-1·cm^-1·10^3; in data set [1] (pH 7.1, 365 nm), 13.2 1·mol^-1·cm^-1·10^3; in data set [1] (pH 10, 365 nm) it was 13.2 1·mol^-1·cm^-1·10^3.

Consider `Cc1cc(=O)oc2c([N+](=O)[O-])c(O)ccc12` [4-Methyl-8-nitrobenzopyran-2-one, 2H-7-hydroxy-4-methyl-8-nitrobenzopyran-2-one], for which, in the data set “pKa of the dyes A-OH”, the pKa is on record as 4.45.

Regarding `O=c1oc2cc(O)ccc2cc1[N+](=O)[O-]` [7-hydroxy-3-nitrocoumarin], the figures for the absorption maximum in data set [1] (pH<6) and in data set [1] (pH>8) were 390 nm and 450 nm, respectively.

As to `O=c1ccc2nc3ccc(O)cc3oc-2c1` [Resorufin, 3H-7-hydroxyphenoxazin-3-one], the Extinction coefficient in data set [1] (pH 4.0, 574 nm, mercury lamp photometer, calculated) was 1.00 1·mol^-1·cm^-1·10^3; in data set [1] (pH 4.0, 578 nm, variable wavelength photometer), 0.75 1·mol^-1·cm^-1·10^3; in data set [1] (pH 5.0, 574 nm, mercury lamp photometer, calculated) it was 7.4 1·mol^-1·cm^-1·10^3; in data set [1] (pH 5.0, 578 nm, variable wavelength photometer), 5.7 1·mol^-1·cm^-1·10^3; in data set [1] (pH 6.0, 574 nm, mercury lamp photometer, calculated) it was 29.64 1·mol^-1·cm^-1·10^3; in data set [1] (pH 6.0, 578 nm, variable wavelength photometer), 22.80 1·mol^-1·cm^-1·10^3. Also, the Extinction coefficient is on record as 49.87 1·mol^-1·cm^-1·10^3 in data set [1] (pH 7.1, 574 nm, mercury lamp photometer); 39.6 1·mol^-1·cm^-1·10^3 in data set [1] (pH 7.1, 578 nm, variable wavelength photometer); 55.42 1·mol^-1·cm^-1·10^3 in data set [1] (pH 10, 574 nm, mercury lamp photometer); 41.000 1·mol^-1·cm^-1·10^3 in data set [1] (pH 10, 578 nm, variable wavelength photometer).

`Cc1cc(=O)oc2c([N+](=O)[O-])c(O[C@H]3O[C@H](CO)[C@@H](O[C@H]4O[C@H](CO)[C@@H](O[C@H]5O[C@H](CO)[C@@H](O)[C@H](O)[C@H]5O)[C@H](O)[C@H]4O)[C@H](O)[C@H]3O)ccc12` [compound S10, 2H-7-O-(α-D-Maltotriosyl)-4-methyl-8-nitrobenzopyran-2-one]: in the data set with α-amylase, the “absorbance change, fold greater than with the nitrophenyl derivative” value is given as 32 fold and the “delta A/min” value is on record as 0,635 A/min.

Turning to `Cc1cc(=O)oc2c([N+](=O)[O-])c(O[C@H]3O[C@H](CO)[C@@H](O[C@H]4O[C@H](CO)[C@@H](O[C@H]5O[C@H](CO)[C@@H](O[C@H]6O[C@H](CO)[C@@H](O)[C@H](O)[C@H]6O)[C@H](O)[C@H]5O)[C@H](O)[C@H]4O)[C@H](O)[C@H]3O)ccc12` [compound S11, 2H-7-O-(α-D-Maltotetraosyl)-4-methyl-8-nitrobenzopyran-2-one], in the data set on α-amylase, the “absorbance change, fold greater than with the nitrophenyl derivative” value is “approximately 14 fold” and the “delta A/min” value was 0,134 A/min.

For `O=[N+]([O-])c1ncccc1O[C@H]1O[C@H](CO)[C@@H](O[C@H]2O[C@H](CO)[C@@H](O[C@H]3O[C@H](CO)[C@@H](O)[C@H](O)[C@H]3O)[C@H](O)[C@H]2O)[C@H](O)[C@H]1O` [compound S12, 3-O-(α-D-Maltotriosyl)-2-nitropyridine], the “absorbance changes in comparison with the state of the art” value with α-amylase (without auxiliary enzyme, immediately linear kinetics) is “sufficiently high absorbance changes”.

As to `O=[N+]([O-])c1ccccc1O[C@H]1O[C@H](CO)[C@@H](O[C@H]2O[C@H](CO)[C@@H](O[C@H]3O[C@H](CO)[C@@H](O)[C@H](O)[C@H]3O)[C@H](O)[C@H]2O)[C@H](O)[C@H]1O` [nitrophenyl derivative, o-nitrophenyl α-maltotrioside], the “delta A/min” value with α-amylase is given as 0,020 A/min.

As for `O=[N+]([O-])c1ccc(O)cc1` [p-Nitrophenol], the Extinction coefficient in data set [1] (pH 4.0, 405 nm) is 0.20 1·mol^-1·cm^-1·10^3; in data set [1] (pH 5.0, 405 nm) it was 0.40 1·mol^-1·cm^-1·10^3; in data set [1] (pH 6.0, 405 nm), 1.50 1·mol^-1·cm^-1·10^3; in data set [1] (pH 7.1, 405 nm), 9.7 1·mol^-1·cm^-1·10^3; in data set [1] (pH 10, 405 nm) it was 18.30 1·mol^-1·cm^-1·10^3.

The record behind these values is patent publication US4716222A, “Substrates for hydrolases” (Hoechst Aktiengesellschaft, priority 1984, dated 1987).
